Results: patent US20070149508A1, “Six membered heteroaromatic inhibitors targeting resistant kinase mutations” (TargeGen, Inc., priority 2005, published 2007)
Structures can show the parent of a compound that is named as a salt.

Tests used:
[1] = biological target: Abl kinase (Homo sapiens, UniProt P00519); experiment: biochemical; details: Abl IC50 (nM), Abl kinase (Invitrogen, 20 ng/well), Abltide 100 μM, ATP 500 nM, 37° C. for 60 minutes, top concentration 10 uM
[2] = biological target: T1, Abl (T315I) (Homo sapiens, UniProt P00519, T315I); experiment: Abl (T315I) Kinase Assay (KinaseGlo luminescent detection of residual ATP); type: biochemical; details: Abl (T315I) IC50 (nM), Abl (T315I) (Upstate, 17 ng/well), Abltide 100 uM, ATP 500 nM, 60 minutes at 37° C.
T1 construct: purchased Upstate
Protocol: The assay was performed similarly to the Abl kinase assay. Abl (T315I) (Upstate, 17 ng/well); Abltide substrate (100 uM) and ATP (500 nM) comprised the reaction mixture. Compound was similarly diluted, and the reaction plate was incubated for 60 minutes at 37° C.

Row | IC50 [1] [nM] | IC50 [2] [nM] | Structure (SMILES)
1 | 12 | 2000 | O=C(Nc1ccc(Cl)c(/C=C/c2cnc(Nc3ccc(S(=O)(=O)C4CCNCC4)cc3)nc2)c1)c1cccc(C(F)(F)F)c1 [N-[4-Chloro-3-(2-{2-[4-(piperidine-4-sulfonyl)-phenylamino]-pyrimidin-5-yl}-vinyl)-phenyl]-3-trifluoromethyl-benzamide]
2 | 210 | 522 | Nc1cc(C(F)(F)F)cc(/C=C/c2cnc(Nc3ccc(S(=O)(=O)C4CCNCC4)cc3)nc2)c1N [3-((E)-2-(2-(4-(piperidin-4-ylsulfonyl)phenylamino)pyrimidin-5-yl)vinyl)-5-(trifluoromethyl)benzene 1,2-diamine.]
3 | 75 | 467 | O=S(=O)(c1ccc(Nc2ncc(/C=C/c3ccc4[nH]nnc4c3)cn2)cc1)C1CCNCC1 [5-((E)-2-(1H-benzo[d][1,2,3]triazol-5-yl)vinyl)-N-(4-(piperidin-4-ylsulfonyl)phenyl)pyrimidin-2-amine]
4 | 109 | 38 | CN(C)CCN(C1CCNCC1)S(=O)(=O)c1ccc(Nc2ncc(/C=C/c3ccc4nc(N)sc4c3)cn2)cc1 [4-({5-[(E)-2-(2-amino-1,3-benzothiazol-6-yl)vinyl}pyrimidin-2-yl}amino)-N-[2-(dimethylamino)ethyl]-N-piperidin-4-ylbenzenesulfonamide]
5 | 2860 | 5040 | O=S(=O)(c1ccc(Nc2ncc(/C=C/c3ccc(-c4c[nH]cn4)cc3)cn2)cc1)N1CCNCC1 [(5-{2-[4-(1H-Imidazol-4-yl)-phenyl]-vinyl}-pyrimidin-2-yl)-[4-(piperazine-1-sulfonyl)-phenyl]-amine]
6 | 61 | 21 | O=S(=O)(c1ccc(Nc2ncc(/C=C/c3cc(Cl)cc4[nH]nnc34)cn2)cc1)N1CCNCC1 [[4-(Piperazine-1-sulfonyl)-phenyl]-{5-[2-(6-chloro-1H-benzotriazol-4-yl)-vinyl]-pyrimidin-2-yl}-amine]
7 | 10 | 65 | Cc1nc(Nc2ccc(S(=O)(=O)C3CCNCC3)cc2)ncc1/C=C/c1cccc(O)c1 [3-((E)-2-(2-(4-(piperidin-4-ylsulfonyl)phenylamino)-4-methylpyrimidin-5-yl)vinyl)phenol hydrochloride]
8 | 39 | 22 | Nc1nc2ccc(/C=C/c3cnc(Nc4ccc(S(=O)(=O)N5CCCNCC5)cc4)nc3)cc2s1 [(E)-6-(2-(2-(4-(1,4-diazepan-1-ylsulfonyl)phenylamino)pyrimidin-5-yl)vinyl)benzo[d]thiazol-2-amine]
9 | 66 | 700 | NCC(=O)N1CCC(S(=O)(=O)c2ccc(Nc3ncc(/C=C/c4cccc5[nH]ccc45)cn3)cc2)CC1 [1-(4-(4-(5-((E)-2-(1H-indol-4-yl)vinyl)pyrimidin-2-ylamino)phenylsulfonyl)piperidin-1-yl)-2-aminoethanone hydrochloride]
10 | 192 | 169 | Nc1nc2ccc(/C=C/c3cnc(Nc4ccc(S(=O)(=O)C5CCNCC5)cc4)nc3)cc2[nH]1 [6-[(E)-2-(2-{[4-(piperidin-4-ylsulfonyl)phenyl]amino}pyrimidin-5-yl)vinyl]-1H-benzimidazol-2-amine]
11 | 7.3 | 78 | O=S(=O)(c1ccc(Nc2ncc(/C=C/c3cccc(O)c3)cn2)cc1NCCO)N1CCNCC1 [3-{(E)-2-[2-({3-[(2-hydroxyethyl)amino]-4-(piperazin-1-ylsulfonyl)phenyl}amino)pyrimidin-5-yl]vinyl}phenol trifluoroacetic acid salt]
12 | 8 | 149 | O=S(=O)(c1ccc(Nc2ncc(/C=C/c3ccc(F)c4[nH]ccc34)cn2)cc1)C1CCNCC1 [5-((E)-2-(7-fluoro-1H-indol-4-yl)vinyl)-N-(4-(piperidin-ylsulfonyl)phenyl)pyrimidin-2-amine Hydrochloride]
13 | 1440 | 898 | Nc1nc2ccc(/C=C/c3cnc(Nc4ccc(S(=O)(=O)NC5CCCNC5)cc4)nc3)cc2s1 (stereo not shown) [4-{5-[2-(2-Aminobenzothiazol-6-yl)-vinyl]-pyrimidin-2-ylamino}-N-piperidin-3-yl-benzenesulfonamide Hydrochloride]
14 | 4.1 | 37 | O=S(=O)(c1ccc(Nc2ncc(/C=C/c3cccc(O)c3)cn2)cc1)N1CCNCC1 [3-(2-{2-[4-(Piperazine-1-sulfonyl)-phenylamino]-pyrimidin-5-yl}-vinyl)-phenol]
15 | 7.7 | 390 | O=S(=O)(NCCN1CCCC1)c1ccc(Nc2ncc(/C=C/c3cc(O)ccc3Cl)cn2)cc1 [4-{5-[2-(2-Chloro-5-hydroxy-phenyl)-vinyl]-pyrimidin-2-ylamino}-N-(2-pyrrolidin-1-yl-ethyl)-benzenesulfonamide]
16 | 245 | 666 | O=S(=O)(c1ccc(Nc2ncc(/C=C/c3cc(C(F)(F)F)cc4[nH]cnc34)cn2)cc1)C1CCNCC1 [5-((E)-2-(6-(trifluoromethyl)-1H-benzo[d]imidazol-4-yl)vinyl)-N-(4-(piperidin-4-ylsulfonyl)phenyl)pyrimidin-2-amine.]

Row | IC50 [1] [nM] | IC50 [2] [nM] | Structure (SMILES)
17 | 15 | 32 | O=S(=O)(c1ccc(Nc2ncc(/C=C/c3ccc(O)cc3)cn2)cc1)C1CCNCC1 [4-(2-{2-[4-(Piperidine-4-sulfonyl)-phenylamino]-pyrimidin-5-yl}-vinyl)-phenol]
18 | 31 | 561 | Nc1cccc(/C=C/c2cnc(Nc3ccc(S(=O)(=O)C4CCNCC4)cc3)nc2)c1 [15-(3-aminostyryl)-N-(4-(piperidin-4-ylsulfonyl)phenyl)pyrimidin-2-amine Hydrochloride]
19 | 159 | 2720 | O=S(=O)(c1ccc(Nc2ncc(/C=C/c3cccc(-c4ncc[nH]4)c3)cn2)cc1)C1CCNCC1 [5-((E)-3-(1H-imidazol-2-yl)styryl))-N-(4-(piperidin-4-ylsulfonyl)phenyl)pyrimidin-2-amine]
20 | 21 | 820 | C(=C\c1cccc2[nH]ccc12)/c1cnc(Nc2ccc(OC3CCNCC3)cc2)nc1 [5-[(E)-2-(1H-indol-4-yl)vinyl]-N-[4-(piperidin-4-yloxy)phenyl]pyrimidin-2-amine trifluoroacetic acid salt]
21 | 44700 | 1.53e+06 | O=S(=O)(c1ccc(Nc2ncc(/C=C/c3cccc(O)c3)cn2)c(C(F)(F)F)c1)N1CCNCC1 [3-(2-{2-[4-(Piperazine-1-sulfonyl)-2-trifluoromethyl-phenylamino]-pyrimidin-5-yl}-vinyl)-phenol]
22 | 113 | 96 | NC(=O)CN(C1CCNCC1)S(=O)(=O)c1ccc(Nc2ncc(/C=C/c3ccc4nc(N)sc4c3)cn2)cc1 [[4-({5-[(E)-2-(2-amino-1,3-benzothiazol-6-yl)vinyl]pyrimidin-yl}amino)phenyl]sulfonyl}-N2-piperidin-4-ylglycinamide]
23 | 41 | 852 | CN1CCN(C(=O)c2ccc(Nc3ncc(/C=C/c4cccc5[nH]ccc45)cn3)cc2)CC1 [5-[(E)-2-(1H-indol-4-yl)vinyl]-N-{4-[(4-methylpiperazin-1-yl)carbonyl]phenyl}pyrimidin-2-amine]
24 | 630 | 1200 | Nc1nc2ccc(/C=C/c3cnc(Nc4ccc(SCCN5CCOCC5)cc4)nc3)cc2s1 [6-(2-{2-[4-(2-Morpholin-4-yl-ethylsulfanyl)-phenylamino]-pyrimidin-5-yl}-vinyl)-benzothiazol-2-ylamine]
25 | 30 | 81 | O=S(=O)(NCCO)c1ccc(Nc2ncc(/C=C/c3cccc4[nH]ncc34)cn2)cc1N1CCNCC1 [N-(2-hydroxyethyl)-4-({5-[(E)-2-(1H-indazol-4-yl)vinyl]pyrimidin-2-yl}amino)-2-piperazin-1-ylbenzenesulfonamide trifluoroacetic acid salt]
26 | 5.1 | 173 | NC1CCN(S(=O)(=O)c2ccc(Nc3ncc(/C=C/c4cccc5[nH]ncc45)cn3)cc2)CC1 [N-{4-[(4-aminopiperidin-1-yl)sulfonyl]phenyl}-5-[(E)-2-(1H-indazol-4-yl)vinyl]pyrimidin-2-amine]
27 | 5150 | 9450 | Nc1nc2ccc(/C=C/c3cnc(Nc4ccc(CCCN5CCCC5)cc4)nc3)cc2s1 [6-[(E)-2-(2-{[4-(3-pyrrolidin-1-ylpropyl)phenyl]amino}pyrimidin-5-yl)vinyl]-1,3-benzothiazol-2-amine]
28 | 38 | 163 | O=S(=O)(c1ccc(Nc2ncc(/C=C/c3ccnc4[nH]ccc34)cn2)cc1)C1CCNCC1 [N-[4-(piperidin-4-ylsulfonyl)phenyl]-5-[(E)-2-(1H-pyrrolo[2,3-b]pyridin-4-yl)vinyl]pyrimidin-2-amine]
29 | 154 | 156 | Nc1nc2ccc(/C=C/c3cnc(Nc4ccc(S(=O)(=O)N5CCNCC5)c(NCCO)c4)nc3)cc2s1 [2-{[5-({5-[(E)-2-(2-amino-1,3-benzothiazol-6-yl)vinyl]pyrimidin-2-yl}amino)-2-(piperazin-1-ylsulfonyl)phenyl]amino}ethanol]
30 | 430 | 728 | O=S(=O)(c1ccc(Nc2ncc(/C=C/c3cccc4[nH]ccc34)cn2)cc1)N(CCO)C1CCNCC1 [N-(2-hydroxyethyl)-4-({5-[(E)-2-(1H-indol-4-yl)vinyl]pyrimidin-2-yl}amino)-N-piperidin-4-ylbenzenesulfonamide]
31 | 191 | 202 | O=S(=O)(c1ccc(Nc2ncc(/C=C/c3n[nH]c4ccccc34)cn2)cc1)C1CCNCC1 [5-((E)-2-(1H-indazol-3-yl)vinyl)-N-(4-(piperidin-4-ylsulfonyl)phenyl)pyrimidin-2-amine Hydrochloride]
32 | 269 | 89 | O=S(=O)(c1ccc(Nc2ncc(/C=C/c3cc(C(F)(F)F)cc4[nH]nnc34)cn2)cc1)N1CCNCC1 [[4-(Piperazine-1-sulfonyl)-phenyl]-{5-[2-(6-trifluoromethyl-1H-benzotriazol-4-yl)-vinyl]-pyrimidin-2-yl}-amine]
